ChEMBL document CHEMBL1201862, “PubChem BioAssay data set” (2004)
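Protocol summary: plate cells (96-well), add compound at 5 concentrations, incubate 48 h, interpolate endpoints linearly. GI50 is the concentration that inhibits growth by half.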 Active and inactive are the calls of the source. No stated cut-off is given here; in the data, active = GI50 up to about 1.1 µM and inactive = higher.

Legend:
Experiment in all cases: NCI anticancer screen, dose series, 48 h
MOLT-4 = tested on: MOLT-4
UO-31 = tested on: UO-31
IGROV-1 = tested on: IGROV-1
NCI-H23 = tested on: NCI-H23
SNB-75 = tested on: SNB-75
MCF7 = tested on: MCF7
HCT-15 = tested on: HCT-15
HL-60 = tested on: HL-60
NCI-H522 = tested on: NCI-H522
OVCAR-3 = tested on: OVCAR-3
MDA-MB-231 = tested on: MDA-MB-231
MDA-MB-435 = tested on: MDA-MB-435
HCC 2998 = tested on: HCC 2998
SK-MEL-5 = tested on: SK-MEL-5
HOP-92 = tested on: HOP-92
Malme-3M = tested on: Malme-3M
SF-539 = tested on: SF-539
TK-10 = tested on: TK-10
SK-MEL-28 = tested on: SK-MEL-28
RPMI-8226 = tested on: RPMI-8226

SMILES	GI50 (MOLT-4)	GI50 (UO-31)	GI50 (IGROV-1)	GI50 (NCI-H23)	GI50 (SNB-75)	GI50 (MCF7)	GI50 (HCT-15) [µM]	GI50 (HL-60)	GI50 (NCI-H522)	GI50 (OVCAR-3)	GI50 (MDA-MB-231)	GI50 (MDA-MB-435)	GI50 (HCC 2998)	GI50 (SK-MEL-5)	GI50 (HOP-92)	GI50 (Malme-3M)	GI50 (SF-539)	GI50 (TK-10)	GI50 (SK-MEL-28)	GI50 (RPMI-8226)
COC(=O)/C=C\C(C#N)(C#N)/N=C/c1cccc(OC)c1	1.9 µM (inactive)	2.74 µM (inactive)	11.7 µM (inactive)	6.9 µM (inactive)	15.9 µM (inactive)	4.94 µM (inactive)	1.93	> 100 µM (inactive)	1.38 µM (inactive)	11.5 µM (inactive)	13.2 µM (inactive)	6.5 µM (inactive)	16.3 µM (inactive)	16.8 µM (inactive)	2.3 µM (inactive)	1.71 µM (inactive)	2.53 µM (inactive)	1.91 µM (inactive)	14.3 µM (inactive)	2.71 µM (inactive)
CC(C)(C)c1cc(OCc2nnc3sc(S)nn23)c(Cl)cc1OCc1nnc2sc(S)nn12	23.8 µM (inactive)	43.9 µM (inactive)	23.2 µM (inactive)	28.7 µM (inactive)	38.8 µM (inactive)	15.6 µM (inactive)	40.6	22.5 µM (inactive)	17.3 µM (inactive)	25.2 µM (inactive)	36.6 µM (inactive)	23.6 µM (inactive)	31.8 µM (inactive)	14.5 µM (inactive)	17.5 µM (inactive)	16.6 µM (inactive)	35.7 µM (inactive)	35 µM (inactive)	22.3 µM (inactive)	30.7 µM (inactive)
Cc1ccc(C2=CC(=O)/C(=C\C(=O)c3ccc(Br)cc3)O2)c(C)c1	3.52 µM (inactive)	9.02 µM (inactive)	18.4 µM (inactive)	26.6 µM (inactive)	7.85 µM (inactive)	5.33 µM (inactive)	12.2	3.92 µM (inactive)	1.69 µM (inactive)	5.3 µM (inactive)	9.31 µM (inactive)	13.6 µM (inactive)	12.1 µM (inactive)	14.5 µM (inactive)	6.4 µM (inactive)	10.5 µM (inactive)	31.4 µM (inactive)	3.83 µM (inactive)	17.2 µM (inactive)	2.87 µM (inactive)
Cc1ccc2nc(Cl)c(/C=N/N3C(=O)/C(=C/Cc4ccco4)N=C3c3ccccc3)cc2c1	58.6 µM (inactive)	23.7 µM (inactive)	23.1 µM (inactive)	> 49.2 µM (inactive)	> 47.4 µM (inactive)	40.3 µM (inactive)	27.7	34.1 µM (inactive)	27.4 µM (inactive)	71.1 µM (inactive)	67.8 µM (inactive)	2.1 µM (inactive)	28.6 µM (inactive)	56.4 µM (inactive)	28.9 µM (inactive)	63.5 µM (inactive)	43.6 µM (inactive)	18.4 µM (inactive)	58.7 µM (inactive)	27 µM (inactive)
CN1CCN(C2CC(=O)c3c(Cl)sc(Cl)c32)CC1 (stereo not given)	5.48 µM (inactive)	7.6 µM (inactive)	8.69 µM (inactive)	9.12 µM (inactive)	14.7 µM (inactive)	4.99 µM (inactive)	10.4	19.9 µM (inactive)	4.8 µM (inactive)	16.3 µM (inactive)	20 µM (inactive)	7.05 µM (inactive)	8.87 µM (inactive)	30.1 µM (inactive)	10.4 µM (inactive)	23.9 µM (inactive)	17.3 µM (inactive)	29 µM (inactive)	7.57 µM (inactive)	4.36 µM (inactive)
NCCCc1ccc2oc3ccccc3c2c1	11.8 µM (inactive)	15.8 µM (inactive)	20.6 µM (inactive)	20.6 µM (inactive)	16.8 µM (inactive)	18.7 µM (inactive)	17.6	11.4 µM (inactive)	17.1 µM (inactive)	17.2 µM (inactive)	17.7 µM (inactive)	15.7 µM (inactive)	10.6 µM (inactive)	14.9 µM (inactive)	20.4 µM (inactive)	17.5 µM (inactive)	21.2 µM (inactive)	16.7 µM (inactive)	17.8 µM (inactive)	26.4 µM (inactive)
C[C@@]12C[C@@H](c3ccccc3O1)N1CCSC1=N2	75.5 µM (inactive)	> 100 µM (inactive)	> 100 µM (inactive)	> 100 µM (inactive)	> 100 µM (inactive)	> 100 µM (inactive)	> 100	> 100 µM (inactive)	> 100 µM (inactive)	> 100 µM (inactive)	> 100 µM (inactive)	> 100 µM (inactive)	> 100 µM (inactive)	> 100 µM (inactive)	> 100 µM (inactive)	> 100 µM (inactive)	> 100 µM (inactive)	> 100 µM (inactive)	> 100 µM (inactive)	> 100 µM (inactive)
C[N+](C)(C)CCCCCc1c2nc(c(CCCCC[N+](C)(C)C)c3ccc([nH]3)c(CCCCC[N+](C)(C)C)c3nc(c(CCCCC[N+](C)(C)C)c4ccc1[nH]4)C=C3)C=C2	> 100 µM (inactive)	> 100 µM (inactive)	> 100 µM (inactive)	> 100 µM (inactive)	> 100 µM (inactive)	> 100 µM (inactive)	> 100	> 100 µM (inactive)	> 100 µM (inactive)	> 100 µM (inactive)	> 100 µM (inactive)	> 100 µM (inactive)	> 100 µM (inactive)	> 100 µM (inactive)	> 100 µM (inactive)	> 100 µM (inactive)	> 100 µM (inactive)	11.3 µM (inactive)	> 100 µM (inactive)	> 100 µM (inactive)
Cc1ccc(NC(Nc2ccc(C)cc2C)=C(C(Cl)=C(Cl)Cl)[N+](=O)[O-])c(C)c1	10.7 µM (inactive)	13.7 µM (inactive)	14.1 µM (inactive)	6.22 µM (inactive)	9.35 µM (inactive)	38.7 µM (inactive)	14.9	4.12 µM (inactive)	11.1 µM (inactive)	15.4 µM (inactive)	15.5 µM (inactive)	4.89 µM (inactive)	18 µM (inactive)	4.63 µM (inactive)	12.4 µM (inactive)	16.9 µM (inactive)	21.3 µM (inactive)	16.9 µM (inactive)	19.9 µM (inactive)	19.2 µM (inactive)
